Data reported in US9421263B2, “Antimicrobial compositions containing synergistic combinations of quaternary ammonium compounds and essential oils and/or constituents thereof” (THE TRUSTEES OF COLUMBIA UNIVERSITY IN THE CITY OF NEW YORK, priority 2003, dated 2016).

Assays:
S. aureus = assay: Evaluation of rapid antimicrobial activity in presence of serum (S. aureus); type: cell-based; settings: for synergy in combination with farnesol, in words: Example 3, Table 3, rapid serum-based assay; for log10 reduction, With zinc salts / cfu/ml, With zinc salts / log10 reduction, Without zinc salts / cfu/ml, Without zinc salts: Table 2; for log10 reduction, With zinc salts / cfu/ml, With zinc salts: Base #1 with zinc salts; for log10 reduction, With zinc salts / cfu/ml, With zinc salts / log10 reduction, Without zinc salts / cfu/ml, Without zinc salts / cfu/ml / log10 reduction / log10 reduction, S. aureus / cfu/ml, S. aureus / Log10 reduction: serum; for log10 reduction, With zinc salts / cfu/ml, With zinc salts / log10 reduction, Without zinc salts / cfu/ml, Without zinc salts / cfu/ml / log10 reduction / log10 reduction, S. aureus / cfu/ml, S. aureus / Log10 reduction / CFU/mL: 15 seconds; for cfu/ml, With zinc salts / cfu/ml: control gel 1.4 × 10^7; for log10 reduction, Without zinc salts / cfu/ml, Without zinc salts: Base #2 without zinc salts; for cfu/ml, Without zinc salts: control gel 4.1 × 10^7; for cfu/ml / log10 reduction: Table 3, groups in gel Base #2 (% w/w); for log10 reduction, S. aureus / cfu/ml, S. aureus: Base #2; for synergy of the combination, in words: Example 1, Table 1, Base #1; for Log10 reduction / CFU/mL: Table 1, BZK 0.12%, CHG 0.05%, TC 0.3%, ZP 0.5%, F/LO/LI/CI 0.3%; for Log10 reduction: Base #1 (zinc salts), versus Control (Base); for CFU/mL: agents in alcohol based zinc gel Base #1, bovine adult serum, control 3.4 × 10^7
Procedure: Evaluation of Rapid Antimicrobial Activity in Presence of Serum.
To determine the efficacy of the antimicrobial composition on the skin, which may be contaminated with blood or other proteinaceous fluids containing bacteria, the antimicrobial activity was evaluated in the presence of serum as follows. Briefly, 0.5 ml of 10^8 CFU of S. aureus/ml was added to 0.5 ml of bovine adult serum in a sterile culture tube and mixed. 0.5 ml of the test formulation was added to each tube and vortexed. After 15 seconds, it was further diluted 1:100 with drug inactivating media (LTSB) and 0.5 ml was plated on a TSA plate. The plates were incubated at 37° C. for 24 hours and the colony count per ml of culture was determined.

E. coli = assay: Rapid antimicrobial activity assay in presence of serum (E. coli); type: cell-based
[1] = cited from earlier work
[2] = Table 4, BZK 0.12% w/w, BZT 0.18% w/w, all other EO/IC 0.5% w/w
[3] = Table 4, BZK 0.12% w/w, BZT 0.18% w/w, all other EO/IC 0.5% w/w, control 1.4 × 10^7
[4] = Table 6, Gel Base #1, ingredients % w/w, control base 3.4 × 10^7 cfu/ml
[5] = Table 7, ingredients in gram millimoles per 100 g Gel, control base 6.4 × 10^7 cfu/ml
[6] = Table 4, Base #2, BZK 0.12% w/w, BZT 0.18% w/w, all other EO/IC 0.5% w/w, 15 seconds
[7] = Table 4, Base #2, BZK 0.12% w/w, BZT 0.18% w/w, all other EO/IC 0.5% w/w, 15 seconds, control 2.6 × 10^7
[8] = Table 5, Base #2, 15 seconds, gel base 2.6 × 10^7
[9] = Example 6, Table 7, molar proportions

With `CC(C)(C)CC(C)(C)c1ccc(OCCOCC[N+](C)(C)Cc2ccccc2)cc1` [BZT, benzethonium chloride] the “synergy in combination with farnesol, in words” value (S. aureus) was “synergistic antimicrobial activity when used in combination with farnesol”, the “log10 reduction, With zinc salts” value (S. aureus) was 1.6 log10 and the “cfu/ml, With zinc salts” value (S. aureus) was 3.3 × 10^5 cfu/ml. The “log10 reduction, Without zinc salts” value (S. aureus) was 1.7 log10, the “cfu/ml, Without zinc salts” value (S. aureus) was 7.5 × 10^5 cfu/ml and the cfu/ml (S. aureus; listed as BZT (0.06%)) was 5.7 × 10^5 cfu/ml. The cfu/ml (S. aureus; listed as BZT (0.12%)) was 4.7 × 10^5 cfu/ml, the cfu/ml (S. aureus; listed as BZT (0.18%)) was 3.3 × 10^5 cfu/ml and the log10 reduction (S. aureus; listed as BZT (0.06%)) was 1.4 log10. For the same molecule, the log10 reduction (S. aureus; listed as BZT (0.12%)) was 1.5 log10, the log10 reduction (S. aureus; listed as BZT (0.18%)) was 1.6 log10 and the “log10 reduction, S. aureus” value (S. aureus; [2]) was 1.4 log10. For the same molecule, the “cfu/ml, S. aureus” value (S. aureus; [3]) was 5.3 × 10^5 cfu/ml, the “log10 reduction, S. aureus” value (S. aureus; Table 5) was 1.4 log10 and the “cfu/ml, S. aureus” value (S. aureus; Table 5, gel base 1.4 × 10^7) was 5.3 × 10^5 cfu/ml. For the same molecule, the “log10 reduction in colony count from the control” value (shortened to “log10 reduction in colony count”) (S. aureus; [4]) was 1.6 log10, the “log10 reduction in colony count” value (S. aureus; [5]) was 1.9 log10 and the “log10 reduction, E. coli” value (E. coli; [6]) was 1.8 log10. For the same molecule, the “cfu/ml, E. coli” value (E. coli; [7]) was 4.3 × 10^5 cfu/ml, the “log10 reduction, E. coli” value (E. coli; Table 5, Base #2, 15 seconds) was 1.8 log10 and the “cfu/ml, E. coli” value (E. coli; [8]) was 4.3 × 10^5 cfu/ml.

With `N=C(NCCCCCCNC(=N)NC(=N)Nc1ccc(Cl)cc1)NC(=N)Nc1ccc(Cl)cc1.O=C(O)[C@H](O)[C@@H](O)[C@H](O)[C@H](O)CO.O=C(O)[C@H](O)[C@@H](O)[C@H](O)[C@H](O)CO` [CHG, chlorhexidine gluconate] the “synergy of the combination, in words” value (S. aureus) was “No such synergism was observed when farnesol was combined”, the Log10 reduction (S. aureus) was 1.7 log10 and the CFU/mL (S. aureus) was 6.6 × 10^5 CFU/mL. The “log10 reduction, S. aureus” value (S. aureus; Table 5) was 1.3 log10, the “cfu/ml, S. aureus” value (S. aureus; Table 5, gel base 1.4 × 10^7) was 6.6 × 10^5 cfu/ml and the “log10 reduction in colony count” value (S. aureus; [4]) was 1.7 log10. For the same molecule, the “log10 reduction in colony count” value (S. aureus; [5]) was 1.9 log10, the “log10 reduction, E. coli” value (E. coli; Table 5, Base #2, 15 seconds) was 1.7 log10 and the “cfu/ml, E. coli” value (E. coli; [8]) was 4.8 × 10^5 cfu/ml.

With `CC(C)=CCCC(C)=CC=O` [CI, Citral] the “synergy of the combination, in words” value (S. aureus) was “synergistic antimicrobial effects when combined with BZK”, the Log10 reduction (S. aureus) was 1.3 log10 and the CFU/mL (S. aureus) was 1.5 × 10^6 CFU/mL.

In the case of `CC(C)=CCCC(C)=CCCC(C)=CCO` [F, Farnesol], the “synergy of the combination, in words” value (S. aureus) is reported as “synergistic antimicrobial effects when combined with BZK”, the Log10 reduction (S. aureus) is reported as 0.6 log10 and the CFU/mL (S. aureus) is reported as 8.4 × 10^6 CFU/mL. For the same molecule, the “log10 reduction, With zinc salts” value (S. aureus) was 1.5 log10, the “cfu/ml, With zinc salts” value (S. aureus) was 4.5 × 10^5 cfu/ml and the “log10 reduction, Without zinc salts” value (S. aureus) was 1.7 log10. For the same molecule, the “cfu/ml, Without zinc salts” value (S. aureus) was 8.9 × 10^5 cfu/ml, the log10 reduction (S. aureus) was 1.5 log10 and the cfu/ml (S. aureus; listed as Farnesol (0.3%)) was 4.6 × 10^5 cfu/ml. For the same molecule, the cfu/ml (S. aureus; listed as Farnesol (0.5%)) was 4.5 × 10^5 cfu/ml, the “log10 reduction, S. aureus” value (S. aureus; [2]) was 1.5 log10 and the “cfu/ml, S. aureus” value (S. aureus; [3]) was 4.5 × 10^5 cfu/ml. For the same molecule, the “log10 reduction, S. aureus” value (S. aureus; Table 5) was 1.5 log10, the “cfu/ml, S. aureus” value (S. aureus; Table 5, gel base 1.4 × 10^7) was 4.5 × 10^5 cfu/ml and the “log10 reduction in colony count” value (S. aureus; [4]) was 0.6 log10. The “log10 reduction in colony count” value (S. aureus; [5]) was 1.8 log10, the “log10 reduction, E. coli” value (E. coli; [6]) was 1.8 log10 and the “cfu/ml, E. coli” value (E. coli; [7]) was 4.3 × 10^5 cfu/ml. The “log10 reduction, E. coli” value (E. coli; Table 5, Base #2, 15 seconds) was 1.8 log10 and the “cfu/ml, E. coli” value (E. coli; [8]) was 4.3 × 10^5 cfu/ml.

For `C=CC(C)(O)CCC=C(C)C` (stereo not shown) [LI, Linalool], the “synergy of the combination, in words” value (S. aureus) was “synergistic antimicrobial effects when combined with BZK”, the Log10 reduction (S. aureus) was 1.3 log10 and the CFU/mL (S. aureus) was 1.5 × 10^6 CFU/mL.

For `Oc1cc(Cl)ccc1Oc1ccc(Cl)cc1Cl` [TC, triclosan], the “synergy of the combination, in words” value (S. aureus) was “No such synergism was observed when farnesol was combined”, the “whether farnesol shows synergy with or enhances the antimicrobial agent, in words” value (shortened to “whether farnesol shows synergy”) (S. aureus; Example 6, Table 6, % w/w) was “does not show any synergy” and the “whether farnesol shows synergy” value (S. aureus; [9]) was “but not with triclosan”. For the same molecule, the Log10 reduction (S. aureus) was 1.3 log10, the CFU/mL (S. aureus) was 1.5 × 10^6 CFU/mL and the “log10 reduction in colony count” value (S. aureus; [4]) was 1.3 log10. The “log10 reduction in colony count” value (S. aureus; [5]) was 1.3 log10.

In the case of “Polyhexamethylenebiguanide hydrochloride [PHMB]”, the “effect of added biguanide on the combination of BZT and farnesol, in words” value (S. aureus; Example 5, Table 5 (S. aureus and E. coli)) is reported as “appears to enhance the activity of the combination of BZT and farnesol”, the “whether farnesol shows synergy” value (S. aureus; Example 6, Table 6, % w/w) is reported as “enhances the activity” and the “whether farnesol shows synergy” value (S. aureus; [9]) is reported as “appears to enhance the activity of farnesol”. The “log10 reduction, S. aureus” value (S. aureus; Table 5) was 2.9 log10, the “cfu/ml, S. aureus” value (S. aureus; Table 5, gel base 1.4 × 10^7) was 4.3 × 10^4 cfu/ml and the “log10 reduction in colony count” value (S. aureus; [4]) was 2.9 log10. The “log10 reduction in colony count” value (S. aureus; [5]) was 2.1 log10, the “log10 reduction, E. coli” value (E. coli; Table 5, Base #2, 15 seconds) was 1.6 log10 and the “cfu/ml, E. coli” value (E. coli; [8]) was 6.0 × 10^5 cfu/ml.

For benzalkonium chloride [BZK], the “synergy of the combination, in words” value (S. aureus) was “significant synergistic activity in combination with EOs and ICs”, the “synergy in combination with farnesol, in words” value (S. aureus) was “synergistic antimicrobial activity when used in combination with farnesol” and the “whether farnesol shows synergy” value (S. aureus; Example 6, Table 6, % w/w) was “shows synergy”. The Log10 reduction (S. aureus) was 1.8 log10, the CFU/mL (S. aureus) was 5.4 × 10^5 CFU/mL and the cfu/ml (S. aureus; listed as BZK (0.06%)) was 1.8 × 10^6 cfu/ml. For the same molecule, the cfu/ml (S. aureus; listed as BZK (0.12%)) was 5.4 × 10^5 cfu/ml, the log10 reduction (S. aureus; listed as BZK (0.06%)) was 0.9 log10 and the log10 reduction (S. aureus; listed as BZK (0.12%)) was 1.4 log10. For the same molecule, the “log10 reduction, S. aureus” value (S. aureus; [2]) was 1.6 log10, the “cfu/ml, S. aureus” value (S. aureus; [3]) was 3.3 × 10^5 cfu/ml and the “log10 reduction in colony count” value (S. aureus; [4]) was 1.8 log10. For the same molecule, the “log10 reduction, E. coli” value (E. coli; [6]) was 1.6 log10 and the “cfu/ml, E. coli” value (E. coli; [7]) was 5.8 × 10^5 cfu/ml.

In the case of zinc glycerate, the “water solubility, in words” value [1] is given as “moderately water soluble”.

For zinc picolinate, the “water solubility, in words” value [1] is listed as “moderately water soluble”.

With zinc pyrithione [ZP] the “synergy of the combination, in words” value (S. aureus) was “No such synergism was observed when farnesol was combined”, the Log10 reduction (S. aureus) was 1.4 log10 and the CFU/mL (S. aureus) was 1.4 × 10^6 CFU/mL.
